Source: ChEMBL document CHEMBL1201862, “PubChem BioAssay data set” (2004)
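Results reflect a 48-hour exposure of cells in 96-well plates to compound at five concentrations. GI50 marks 50% less growth.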 Calls of active or inactive are those of the source. Cut-off read from the data, not from the text of the source: active = GI50 up to about 1.1 µM and inactive = higher.

What was measured:
Experiment in all cases: NCI anticancer screen, dose series, 48 h
[1] = system: HOP-62
[2] = system: HT-29
[3] = system: OVCAR-3
[4] = system: SNB-19
[5] = system: U-251
[6] = system: MDA-MB-435
[7] = system: A498
[8] = system: UACC-62
[9] = system: CAKI-1
[10] = system: Malme-3M
[11] = system: LOX IMVI
[12] = system: DLD-1
[13] = system: NCI-H226
[14] = system: EKVX
[15] = system: OVCAR-4
[16] = system: HCC 2998
[17] = system: 786-0
[18] = system: NCI/ADR-RES
[19] = system: SK-OV-3
[20] = system: NCI-H23

Measured: GI50

CN(C)c1ccc(/C=C/c2cc[n+](C)c3ccccc23)cc1
inactive: [1] 4.63 µM | [2] 2.04 µM | [3] 1.77 µM | [4] 2.34 µM | [5] 2.75 µM | [6] 2.03 µM | [7] 15.1 µM | [8] 3.13 µM | [9] 2.79 µM | [10] 4.51 µM | [11] 3.48 µM | [12] 2.68 µM | [13] 2.53 µM | [14] 34.7 µM | [15] 5.05 µM | [16] 6.32 µM | [17] 4.27 µM | [18] > 100 µM | [19] 5.81 µM | [20] 2.11 µM

Cc1cc2c(C)n(Cc3ccc(Cl)cc3Cl)nc2c(C#N)c1C
inactive: [1] 20 µM | [2] 55.5 µM | [3] 34.7 µM | [4] 15.7 µM | [5] 22.1 µM | [7] 65.8 µM | [8] > 100 µM | [9] 41.8 µM | [10] 24.9 µM | [11] 49.5 µM | [12] > 100 µM | [13] > 42.2 µM | [14] 57.1 µM | [15] 9.89 µM | [16] > 100 µM | [17] 13.6 µM | [19] 19.1 µM | [20] 41.7 µM

O=C1c2ccccc2N2OC3(N4CCOCC4)CCCC3C12c1ccccc1 (configuration not stated)
inactive: [1] > 100 µM | [2] > 100 µM | [4] > 100 µM | [5] > 100 µM | [7] > 100 µM | [8] 93.1 µM | [10] > 100 µM | [12] > 100 µM | [13] > 100 µM | [14] > 100 µM | [15] > 100 µM | [16] > 100 µM | [17] > 100 µM | [19] > 100 µM | [20] > 100 µM

COc1ccc(OC)c(NC(=O)C(=O)C(C(C)=O)c2nc3ccc(Cl)cc3nc2O)c1 (configuration not stated)
inactive: [1] > 50 µM | [2] > 50 µM | [3] > 50 µM | [4] > 50 µM | [5] > 50 µM | [7] > 50 µM | [8] > 50 µM | [9] > 50 µM | [10] > 50 µM | [11] > 50 µM | [12] > 50 µM | [13] > 50 µM | [14] > 50 µM | [15] > 50 µM | [16] > 50 µM | [17] > 50 µM | [19] > 50 µM | [20] > 50 µM

COC(=O)/C=C(C)/C=C/C1OC(C)OCC1O (configuration not stated)
inactive: [1] > 100 µM | [2] > 100 µM | [3] > 100 µM | [4] > 100 µM | [5] > 100 µM | [7] > 100 µM | [8] > 100 µM | [9] > 100 µM | [10] > 100 µM | [11] > 100 µM | [12] > 100 µM | [13] > 100 µM | [14] > 100 µM | [15] > 100 µM | [16] > 100 µM | [17] > 100 µM | [19] > 100 µM | [20] > 100 µM

COC(=O)C(=O)C(C(=O)C(=O)Nc1cc([N+](=O)[O-])ccc1[N+](=O)[O-])c1nc2ccc(C(=O)c3ccccc3)cc2nc1O (configuration not stated)
inactive: [1] 44.5 µM | [2] 34 µM | [3] 39.2 µM | [4] 50.4 µM | [5] 33.4 µM | [7] 20.9 µM | [9] 19.3 µM | [10] 61.4 µM | [11] 19.9 µM | [12] 52.2 µM | [13] 25.4 µM | [14] 39.3 µM | [15] 49.9 µM | [16] > 100 µM | [17] 95.3 µM | [19] 34.2 µM | [20] 25.2 µM

Nc1ncnc2c1sc(=S)n2-c1ccccc1
inactive: [1] > 100 µM | [2] > 100 µM | [3] > 100 µM | [4] > 100 µM | [5] > 100 µM | [7] 82.8 µM | [8] > 100 µM | [9] > 100 µM | [10] > 100 µM | [11] > 100 µM | [12] > 100 µM | [13] > 100 µM | [14] > 100 µM | [15] > 100 µM | [16] > 100 µM | [17] > 100 µM | [19] > 100 µM | [20] > 100 µM

N#Cc1cc([N+](=O)[O-])ccc1NC(=O)C(F)(F)F
inactive: [1] > 100 µM | [2] > 45.5 µM | [3] > 100 µM | [4] > 100 µM | [5] > 100 µM | [7] > 100 µM | [8] > 100 µM | [9] > 100 µM | [10] > 100 µM | [11] > 34.7 µM | [12] > 58.9 µM | [13] > 88.7 µM | [14] > 100 µM | [15] > 100 µM | [16] > 100 µM | [17] > 49.7 µM | [19] > 100 µM | [20] > 100 µM

CCN(CC)c1ccc(/N=N/c2ccc(-c3nc4cccn(C)c-4n3)cc2)cc1
inactive: [1] 10.4 µM | [2] 1.98 µM | [3] 10.5 µM | [4] 15.6 µM | [5] 3.92 µM | [7] 14.9 µM | [8] 11.9 µM | [9] 16.6 µM | [10] 12.1 µM | [11] 2.52 µM | [12] 4.83 µM | [13] 19.8 µM | [14] 18.5 µM | [15] 11.2 µM | [17] 4.09 µM | [19] 17.3 µM | [20] 11.4 µM

COc1ccc(C2Oc3c(c(O)cc4c3[C@H](c3ccc(O)cc3O)[C@H](O)C(c3ccc(O)c(O)c3)O4)C[C@@H]2O)cc1O (some centres not stated)
inactive: [1] > 100 µM | [2] > 100 µM | [3] > 100 µM | [4] > 100 µM | [5] > 100 µM | [7] > 100 µM | [8] > 100 µM | [9] > 100 µM | [10] > 100 µM | [11] > 100 µM | [12] > 100 µM | [13] > 100 µM | [14] > 100 µM | [15] > 100 µM | [16] > 100 µM | [17] > 100 µM | [19] > 100 µM | [20] > 100 µM
